The source of these data is patent US20240148623A1, “GADUSOL AND GADUSPORINE COMPOUND FORMULATIONS FOR TOPICALS” (GADUSOL LABORATORIES, INC., priority 2021, published 2024).

Read-outs that look alike come from different tables or passages of the source.

A short description of one data set: Ames test (mutagenicity). In kind it is cell-based. Background: The Ames test uses bacterial strains that need an amino acid and regain growth without it when mutated back.
Another data set has as its system E. coli. Nature of the data set: Toxicity towards E. coli. The data set is classed as cell-based.
Another data set deals with cells. Nature of the data set: In vivo antioxidant testing (intracytoplasmic activity in cells). The data set is classed as cell-based. The settings on record: for lysis of the cells: highest dose 3.3 mg/ml. Here is the method: The test is designed to measure antioxidant power but requires also that the anti-oxidant agent cross the cell's lipid boundary layer so that only intracytoplasmic activity is measured. […] Some activity was seen even at concentrations below 0.1 mg/ml.

Another data set deals with Vero E6 fibroblasts. Nature of the data set: Cellular toxicity in Vero E6 fibroblasts. The data set is classed as cell-based. The following applies: compared to oxybenzone. From the text:
(§1) The cellular toxicity of gadusol was compared to that of a common sunscreen ingredient, oxybenzone. Vero E6 fibroblasts were used to evaluate toxicity.

Data set [1] can be described thus: Storage stability of gadusol. In kind it is physicochemical. The following applies: after 90 days at pH 2.5. From the text: Addition of an antioxidant could be helpful in increasing the shelf life of gadusol. The stability of gadusol is much higher when stored under acidic conditions. For example, 90% activity was retained after 90 days at pH 2.5. Therefore, storage under acidic conditions may be useful for stabilizing gadusol generally, e.g., prior to introduction into a topical formulation. Combining gadusol with another antioxidant may be useful for extending the shelf life or stability of gadusol in a topical formulation. Storage of gadusol in nitrogen-purged solutions in containers with minimal headspace increased its stability.

Data set [2] in a line: Antioxidant capacity, Folin-Ciocalteu method. The following applies: 0.3 to 10 mg/ml, versus porphyra-334.
Another data set in a line: Comet assay. In kind it is cell-based.
Description: as §1

The conditions of data set [3]: cited from earlier work.
Data set [4] can be described thus: UV absorbance (absorption maximum, molar extinction coefficient). The data set is classed as physicochemical. The settings on record: for UV maximum: under acidic conditions. From the text: Gadusol, gadusporine A 100, gadusporine, B 102, and gadusporine C 104 may be isolated by column purification of Streptomyces coelicolor culture broth (as described in the above publication).
Despite the only difference being a hydroxy group, there are a few notable differences between shinorine and gadusporine A 100. Shinorine has been reported to have an absorption max=330 nm at pH 1.7 and an absorption max=334 nm at pH 7. […] Gadusporine A 100 has a molar extinction coefficient (□□=49,400, as measured in 50 mM phosphate buffer at pH 7.0, which is slightly higher than that of shinorine (□□=44,000), and thus has stronger UV absorbance activity.

The nature of the next data set: Solubility in methanol. The data set is classed as physicochemical. The source says:
Gadusporine B 102 contains L-alanine and glycine, making gadusporine B 102 an analog of mycosporine-glycine-alanine.

Regarding `COC1=C(O)CC(O)(CO)C(O)C1=O` (stereo not shown) [Gadusol], the mutagenicity result in the data set “Ames test (mutagenicity)” was “not to be mutagenic”. For the same compound, in the data set on E. coli, the “toxicity towards E. coli” value was “nor toxic towards E. coli”. In addition, the “in vivo antioxidant activity” value with cells (at about 1 mg/ml, versus the mycosporine) was “significantly more active antioxidant”; in the data set on cells (overall, compared with porphyra-334), “outperformed porphyra-334”. Moreover, in the data set with cells, the “lysis of the cells” value is listed as “some lysis of the cells”. For the same compound, the cellular toxicity result with Vero E6 fibroblasts was “less toxic than oxybenzone”. The same compound showed an activity retained in data set [1] of 90%. Moreover, in [2], the antioxidant power entry is listed as “equivalent to a mycosporine compound”. In addition, the “toxicity in comet assay” value in “Comet assay” is reported as “nor toxic in the comet assay”.
As to `COC1=C(NCC(=O)O)C[C@@](O)(CO)C/C1=N\[C@@H](CO)C(=O)O` [Shinorine], the absorption max is recorded as 330 nm in [3] (pH 1.7, reported) and 334 nm in [3] (pH 7, reported). In addition, the molar extinction coefficient in data set [3] (shinorine comparison value) is reported as 44,000.
Turning to Gadusporine A, the molar extinction coefficient in data set [4] (50 mM phosphate buffer at pH 7.0, in M-1 cm-1 (unit assumed)) is 49,400. In addition, the absorption max in data set [4] (pH 2.0) is reported as 338; in data set [4] (pH 7.0), 340 nm. The compound further registered a UV maximum in [4] of 338 nm.
In the case of Gadusporine B, the solubility in methanol entry in “Solubility in methanol” was “not very soluble in methanol”. The same compound registered a UV maximum in data set [4] of 338 nm.
Take `COC1=C(NCC(=O)O)C[C@@](O)(CO)CC1=N[C@H](C(=O)O)[C@@H](C)O` [porphyra-334, reference compound]: in the data set with cells, the “lysis of the cells” value is “some lysis of the cells”.
